Measured values published in ChEMBL document CHEMBL3045441, “Microwave-assisted CAN-catalyzed solvent-free synthesis of N-allyl quinolone-based pyrano[4,3-b]chromene and benzopyrano[3,2-c]chromene derivatives and their antimicrobial activity” (2013).
Converted amounts (≈) assume the structure as drawn.

Experiments:
Format in all cases: functional
[1] = tested on: Streptococcus pyogenes; assay: Antimicrobial activity against Streptococcus pyogenes MTCC 442 assessed as growth inhibition after 24 hr by NCCLS broth microdilution method; details: MTCC 442, 24 h
[2] = tested on: Escherichia coli; assay: Antimicrobial activity against Escherichia coli MTCC 443 assessed as growth inhibition after 24 hr by NCCLS broth microdilution method; details: MTCC 443, 24 h
[3] = tested on: Staphylococcus aureus; assay: Antimicrobial activity against Staphylococcus aureus MTCC 96 assessed as growth inhibition after 24 hr by NCCLS broth microdilution method; details: MTCC 96, 24 h
[4] = tested on: Pseudomonas aeruginosa; assay: Antimicrobial activity against Pseudomonas aeruginosa MTCC 1688 assessed as growth inhibition after 24 hr by NCCLS broth microdilution method; details: MTCC 1688, 24 h
[5] = tested on: Aspergillus clavatus; assay: Antimicrobial activity against Aspergillus clavatus MTCC 1323 assessed as growth inhibition after 48 hr by NCCLS broth microdilution method
[6] = tested on: Aspergillus niger; assay: Antimicrobial activity against Aspergillus niger MTCC 282 assessed as growth inhibition after 48 hr by NCCLS broth microdilution method
[7] = tested on: Candida albicans; assay: Antimicrobial activity against Candida albicans MTCC 227 assessed as growth inhibition after 48 hr by NCCLS broth microdilution method

Row | Compound | MIC [1] [µg/mL] | MIC [2] [µg/mL] | MIC [3] [µg/mL] | MIC [4] [µg/mL] | MIC ([5]; MTCC 1323, 48 h) [µg/mL] | MIC ([6]; MTCC 282, 48 h) [µg/mL] | MIC ([7]; MTCC 227, 48 h) [µg/mL] | MIC [5] [µg/mL] | MIC [6] [µg/mL] | MIC [7] [µg/mL]
1 | O=C(N[C@H](CO)[C@H](O)c1ccc([N+](=O)[O-])cc1)C(Cl)Cl [CHLORAMPHENICOL] | 50 (≈ 155 µM) | 50 (≈ 155 µM) | 50 (≈ 155 µM) | 50 (≈ 155 µM) | – | – | – | – | – | –
2 | C=CCn1c(=O)c(C2C3=C(CC(C)(C)CC3=O)Oc3cc(C)oc(=O)c32)cc2cc(OC)ccc21 (centres undefined) | 250 (≈ 528 µM) | 500 (≈ 1060 µM) | 250 (≈ 528 µM) | 500 (≈ 1060 µM) | 1000 (≈ 2110 µM) | 1000 (≈ 2110 µM) | 500 (≈ 1060 µM) | – | – | –
3 | C=CCn1c(=O)c(C2C3=C(CCCC3=O)Oc3c2c(=O)oc2ccccc32)cc2cc(C)ccc21 (centres undefined) | 250 (≈ 537 µM) | 20 (≈ 43 µM) | 250 (≈ 537 µM) | 100 (≈ 215 µM) | 500 (≈ 1070 µM) | 500 (≈ 1070 µM) | 250 (≈ 537 µM) | – | – | –
4 | C=CCn1c(=O)c(C2C3=C(CC(C)(C)CC3=O)Oc3c2c(=O)oc2ccccc32)cc2cc(Cl)ccc21 (centres undefined) | 100 (≈ 195 µM) | 100 (≈ 195 µM) | 62.5 (≈ 122 µM) | 100 (≈ 195 µM) | 1000 (≈ 1950 µM) | 1000 (≈ 1950 µM) | 1000 (≈ 1950 µM) | – | – | –
5 | CC1(C)S[C@@H]2[C@H](NC(=O)[C@H](N)c3ccccc3)C(=O)N2[C@H]1C(=O)O [AMPICILLIN] | 100 (≈ 286 µM) | 100 (≈ 286 µM) | 250 (≈ 715 µM) | – | – | – | – | – | – | –
6 | NYSTATIN | – | – | – | – | – | – | – | 100 | 100 | 100
7 | C=CCn1c(=O)c(C2C3=C(CCCC3=O)Oc3cc(C)oc(=O)c32)cc2cc(OC)ccc21 (centres undefined) | 200 (≈ 449 µM) | 125 (≈ 281 µM) | 200 (≈ 449 µM) | 250 (≈ 561 µM) | 1000 (≈ 2240 µM) | 1000 (≈ 2240 µM) | 500 (≈ 1120 µM) | – | – | –
8 | C=CCn1c(=O)c(C2C3=C(CC(C)(C)CC3=O)Oc3cc(C)oc(=O)c32)cc2cc(C)ccc21 (centres undefined) | 125 (≈ 273 µM) | 500 (≈ 1090 µM) | 250 (≈ 546 µM) | 125 (≈ 273 µM) | 250 (≈ 546 µM) | 250 (≈ 546 µM) | 1000 (≈ 2190 µM) | – | – | –
9 | C=CCn1c(=O)c(C2C3=C(CCCC3=O)Oc3cc(C)oc(=O)c32)cc2cc(Cl)ccc21 (centres undefined) | 100 (≈ 222 µM) | 500 (≈ 1110 µM) | 100 (≈ 222 µM) | 500 (≈ 1110 µM) | 1000 (≈ 2220 µM) | 500 (≈ 1110 µM) | 1000 (≈ 2220 µM) | – | – | –
10 | C=CCn1c(=O)c(C2C3=C(CCCC3=O)Oc3c2c(=O)oc2ccccc32)cc2cc(Cl)ccc21 (centres undefined) | 125 (≈ 257 µM) | 200 (≈ 412 µM) | 125 (≈ 257 µM) | 100 (≈ 206 µM) | 1000 (≈ 2060 µM) | 1000 (≈ 2060 µM) | 1000 (≈ 2060 µM) | – | – | –
